Measurements reported in patent publication US10329309B2, “3-(3H-imidazo[4,5-B]pyridin-2-yl)-1H-pyrazolo[4,3-B]pyridines and therapeutic uses thereof” (Samumed, LLC, priority 2015, dated 2019).

Tests used:
Format in all cases: cell-based
[1] = test system: Wnt activity (Sp5-Luc reporter, SW480 colon carcinoma cells); assay: Screening assay for Wnt activity: Sp5-Luc reporter gene assay in SW480 cells; details: Homo sapiens, overnight incubation, 10-point dose-response from 10 μM
In short: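 SW480 cells stably carrying Sp5-Luc reporter (eight TCF/LEF sites) plated at 4,000/well in 1% FBS medium with compound (10-point 1:3 series from 10 μM, 0.1% DMSO) overnight at 37 °C. BrightGlo luminescence normalized to DMSO; EC50 by four-parameter fit, else % inhibition at 10 μM.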

SW480 colon cancer cells = assay: Cell viability assay (CellTiter-Blue), four days; details: Homo sapiens, 96 h; for EC50: CellTiter-Blue cell viability; for inhibition at 10 µM: read-out: percent inhibition at 10 μM (given for EC50 of >10 μM)
In short: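 SW480 colon cancer cells (~2×10^3/well) exposed to 8-point 1:3 dilutions from 10 μM to 0.0045 μM for four days at 37 °C/5% CO2. Viability read by resazurin (CellTiter-Blue) fluorescence after ~3 h, Ex 560/Em 590 nm. EC50 from non-linear regression; percent inhibition at 10 μM given when EC50 >10 μM.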

IL-6 (THP-1 cells) = assay: Inhibition of IL-6 in LPS-stimulated THP-1 monocytes (HTRF); details: Homo sapiens; for EC50: LPS 500 ng/mL, IL-6 by HTRF; for inhibition at 10 µM: LPS stimulated, IL-6, at 10 μM, read-out: percent inhibition at 10 μM (given for EC50 of >10 μM)
In short: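 THP-1 cells, serum-starved in 1% FBS for 24 h, were pre-incubated 2 h with compound (10-point, 1:3 from 10 μM, 0.1% DMSO), then stimulated with 500 ng/mL LPS for 22 h at 37 °C. IL-6 was quantified by HTRF 665/620 ratio. EC50 was fitted from DMSO-normalized data; above 10 μM, % inhibition at 10 μM is given.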

Compound `Cc1ccncc1-c1ccc2[nH]nc(-c3nc4c(-c5cc(F)cc(CNS(C)(=O)=O)c5)ccnc4[nH]3)c2n1` [Compound 481, N-(3-fluoro-5-(2-(5-(4-methylpyridin-3-yl)-1H-pyrazolo[4,3-b]pyridin-3-yl)-3H-imidazo[4,5-b]pyridin-7-yl)benzyl)methanesulfonamide] has an EC50 [1] of 1250 nM, an EC50 (SW480 colon cancer cells) of 5570 nM and an EC50 (IL-6 (THP-1 cells)) of 1030 nM.

`CS(=O)(=O)NCc1cc(F)cc(-c2ccnc3[nH]c(-c4n[nH]c5ccc(-c6cncc(CNCc7ccccc7)c6)nc45)nc23)c1` [Compound 500, N-(3-(2-(5-(5-((Benzylamino)methyl)pyridin-3-yl)-1H-pyrazolo[4,3-b]pyridin-3-yl)-3H-imidazo[4,5-b]pyridin-7-yl)-5-fluorobenzyl)methanesulfonamide] was tested, and the EC50 [1] was 3580 nM, the EC50 (SW480 colon cancer cells) was 8840 nM and the EC50 (IL-6 (THP-1 cells)) was > 10000 nM. The inhibition at 10 µM (IL-6 (THP-1 cells)) was 45.6%.

In the case of `Fc1cccc(-c2ccnc3[nH]c(-c4n[nH]c5ccc(C6=CCNCC6)nc45)nc23)c1` [Compound 506, 3-(7-(3-fluorophenyl)-3H-imidazo[4,5-b]pyridin-2-yl)-5-(1,2,3,6-tetrahydropyridin-4-yl)-1H-pyrazolo[4,3-b]pyridine], the EC50 [1] is reported as > 10000 nM, the EC50 (SW480 colon cancer cells) is reported as 2800 nM and the EC50 (IL-6 (THP-1 cells)) is reported as > 10000 nM. For the same compound, the inhibition at 10 µM (IL-6 (THP-1 cells)) was 27.9%.

For `Cc1ncc(-c2ccc3[nH]nc(-c4nc5c(-c6cccc(F)c6)ccnc5[nH]4)c3n2)n1C` [Compound 509, 5-(1,2-dimethyl-1H-imidazol-5-yl)-3-(7-(3-fluorophenyl)-3H-imidazo[4,5-b]pyridin-2-yl)-1H-pyrazolo[4,3-b]pyridine], the EC50 [1] was 120 nM, the EC50 (SW480 colon cancer cells) was 115 nM and the EC50 (IL-6 (THP-1 cells)) was > 10000 nM. It also gave an inhibition at 10 µM (IL-6 (THP-1 cells)) of 17.5%.

Compound `NC1CN(c2cncc(-c3ccc4[nH]nc(-c5nc6c(-c7cccc(F)c7)ccnc6[nH]5)c4n3)n2)C1` [Compound 510, 1-(6-(3-(7-(3-fluorophenyl)-3H-imidazo[4,5-b]pyridin-2-yl)-1H-pyrazolo[4,3-b]pyridin-5-yl)pyrazin-2-yl)azetidin-3-amine] has an EC50 [1] of 3710 nM, an EC50 (SW480 colon cancer cells) of 1600 nM and an EC50 (IL-6 (THP-1 cells)) of 23 nM.

In the case of `Fc1cccc(-c2ccnc3[nH]c(-c4n[nH]c5ccc(-c6cncc(OCCN7CCCC7)c6)nc45)nc23)c1` [Compound 514, 3-(7-(3-Fluorophenyl)-3H-imidazo[4,5-b]pyridin-2-yl)-5-(5-(2-(pyrrolidin-1-yl)ethoxy)pyridin-3-yl)-1H-pyrazolo[4,3-b]pyridine], the EC50 [1] is reported as 4110 nM, the EC50 (SW480 colon cancer cells) is reported as 8650 nM and the EC50 (IL-6 (THP-1 cells)) is reported as > 10000 nM. The inhibition at 10 µM (IL-6 (THP-1 cells)) was 49.5%.

With `CN(C)CCOc1cncc(-c2ccc3[nH]nc(-c4nc5c(-c6cccc(F)c6)ccnc5[nH]4)c3n2)c1` [Compound 515, 2-((5-(3-(7-(3-fluorophenyl)-3H-imidazo[4,5-b]pyridin-2-yl)-1H-pyrazolo[4,3-b]pyridin-5-yl)pyridin-3-yl)oxy)-N,N-dimethylethan-1-amine] the EC50 [1] was 2840 nM, the EC50 (SW480 colon cancer cells) was 1100 nM and the EC50 (IL-6 (THP-1 cells)) was 5540 nM.

`COc1cncc(-c2ccc3[nH]nc(-c4nc5c(-c6cccc(F)c6)ccnc5[nH]4)c3n2)c1` [Compound 516, 3-(7-(3-fluorophenyl)-3H-imidazo[4,5-b]pyridin-2-yl)-5-(5-methoxypyridin-3-yl)-1H-pyrazolo[4,3-b]pyridine] was tested, and the EC50 [1] was 338 nM, the EC50 (SW480 colon cancer cells) was 120 nM and the EC50 (IL-6 (THP-1 cells)) was 8230 nM.

For `Oc1cncc(-c2ccc3[nH]nc(-c4nc5c(-c6cccc(F)c6)ccnc5[nH]4)c3n2)c1` [Compound 517, 5-(3-(7-(3-fluorophenyl)-3H-imidazo[4,5-b]pyridin-2-yl)-1H-pyrazolo[4,3-b]pyridin-5-yl)pyridin-3-ol], the EC50 [1] was 423 nM, the EC50 (SW480 colon cancer cells) was 768 nM and the EC50 (IL-6 (THP-1 cells)) was 1540 nM.

`Fc1cccc(-c2ccnc3[nH]c(-c4n[nH]c5ccc(-c6cnccn6)nc45)nc23)c1` [Compound 520, 3-(7-(3-fluorophenyl)-3H-imidazo[4,5-b]pyridin-2-yl)-5-(pyrazin-2-yl)-1H-pyrazolo[4,3-b]pyridine] was tested, and the EC50 [1] was 3620 nM, the EC50 (SW480 colon cancer cells) was 2040 nM and the EC50 (IL-6 (THP-1 cells)) was > 10000 nM. For the same compound, the inhibition at 10 µM (IL-6 (THP-1 cells)) was 19.5%.

For `CN(C)CC(=O)Nc1cncc(-c2ccc3[nH]nc(-c4nc5c(-c6cccc(F)c6)ccnc5[nH]4)c3n2)c1` [Compound 969, 2-(dimethylamino)-N-(5-(3-(7-(3-fluorophenyl)-3H-imidazo[4,5-b]pyridin-2-yl)-1H-pyrazolo[4,3-b]pyridin-5-yl)pyridin-3-yl)acetamide], the EC50 [1] was 4360 nM, the EC50 (SW480 colon cancer cells) was > 10000 nM and the inhibition at 10 µM (SW480 colon cancer cells) was 27.7%. For the same compound, the EC50 (IL-6 (THP-1 cells)) was > 10000 nM and the inhibition at 10 µM (IL-6 (THP-1 cells)) was 26.3%.

`COc1cccc(-c2ccnc3[nH]c(-c4n[nH]c5ccc(-c6cccnc6)nc45)nc23)c1` [Compound 994, 3-(7-(3-methoxyphenyl)-3H-imidazo[4,5-b]pyridin-2-yl)-5-(pyridin-3-yl)-1H-pyrazolo[4,3-b]pyridine] was tested, and the EC50 [1] was 1870 nM, the EC50 (SW480 colon cancer cells) was 897 nM and the EC50 (IL-6 (THP-1 cells)) was > 10000 nM. The inhibition at 10 µM (IL-6 (THP-1 cells)) was 50.2%.

In the case of `COc1cccc(-c2ccnc3[nH]c(-c4n[nH]c5ccc(-c6cncc(NC(=O)Cc7ccccc7)c6)nc45)nc23)c1` [Compound 1000, N-(5-(3-(7-(3-methoxyphenyl)-3H-imidazo[4,5-b]pyridin-2-yl)-1H-pyrazolo[4,3-b]pyridin-5-yl)pyridin-3-yl)-2-phenylacetamide], the EC50 [1] is reported as 2800 nM, the EC50 (SW480 colon cancer cells) is reported as 1100 nM and the EC50 (IL-6 (THP-1 cells)) is reported as > 10000 nM. For the same compound, the inhibition at 10 µM (IL-6 (THP-1 cells)) was 12.3%.

`COc1cccc(-c2ccnc3[nH]c(-c4n[nH]c5ccc(-c6cncc(NC(=O)CC(C)(C)C)c6)nc45)nc23)c1` [Compound 1006, N-(5-(3-(7-(3-methoxyphenyl)-3H-imidazo[4,5-b]pyridin-2-yl)-1H-pyrazolo[4,3-b]pyridin-5-yl)pyridin-3-yl)-3,3-dimethylbutanamide] was tested, and the EC50 [1] was 1550 nM, the EC50 (SW480 colon cancer cells) was 1180 nM and the EC50 (IL-6 (THP-1 cells)) was > 10000 nM. It also gave an inhibition at 10 µM (IL-6 (THP-1 cells)) of 32.7%.

`COc1cccc(-c2ccnc3[nH]c(-c4n[nH]c5ccc(-c6cncc(NC(=O)C7CCCCC7)c6)nc45)nc23)c1` [Compound 1012, N-(5-(3-(7-(3-Methoxyphenyl)-3H-imidazo[4,5-b]pyridin-2-yl)-1H-pyrazolo [4,3-b]pyridin-5-yl)pyridin-3-yl)cyclohexanecarboxamide] was tested, and the EC50 [1] was 1910 nM, the EC50 (SW480 colon cancer cells) was 2910 nM and the EC50 (IL-6 (THP-1 cells)) was > 10000 nM. The inhibition at 10 µM (IL-6 (THP-1 cells)) was 43.3%.

`CC(C)CC(=O)Nc1cncc(-c2ccc3[nH]nc(-c4nc5c(-c6ccc(Cl)s6)ccnc5[nH]4)c3n2)c1` [Compound 1037, N-(5-(3-(7-(5-chlorothiophen-2-yl)-3H-imidazo[4,5-b]pyridin-2-yl)-1H-pyrazolo [4,3-b]pyridin-5-yl)pyridin-3-yl)-3-methylbutanamide] gave an EC50 [1] of 1490 nM, an EC50 (SW480 colon cancer cells) of 110 nM and an EC50 (IL-6 (THP-1 cells)) of 5050 nM.

For `CC(C)(C)C(=O)Nc1cncc(-c2ccc3[nH]nc(-c4nc5c(-c6ccc(Cl)s6)ccnc5[nH]4)c3n2)c1` [Compound 1043, N-(5-(3-(7-(5-chlorothiophen-2-yl)-3H-imidazo[4,5-b]pyridin-2-yl)-1H-pyrazolo [4,3-b]pyridin-5-yl)pyridin-3-yl)pivalamide], the EC50 [1] was 644 nM, the EC50 (SW480 colon cancer cells) was > 10000 nM and the inhibition at 10 µM (SW480 colon cancer cells) was 14.5%. For the same compound, the EC50 (IL-6 (THP-1 cells)) was > 10000 nM and the inhibition at 10 µM (IL-6 (THP-1 cells)) was 7.6%.

`Clc1ccc(-c2ccnc3[nH]c(-c4n[nH]c5ccc(-c6cncc(CN7CCCC7)c6)nc45)nc23)s1` [Compound 1049, 3-(7-(5-chlorothiophen-2-yl)-3H-imidazo[4,5-b]pyridin-2-yl)-5-(5-(pyrrolidin-1-ylmethyl)pyridin-3-yl)-1H-pyrazolo[4,3-b]pyridine] was tested, and the EC50 [1] was 7700 nM, the EC50 (SW480 colon cancer cells) was 2750 nM and the EC50 (IL-6 (THP-1 cells)) was > 10000 nM. For the same compound, the inhibition at 10 µM (IL-6 (THP-1 cells)) was 36.2%.

In the case of `O=C(Nc1cncc(-c2ccc3[nH]nc(-c4nc5c(-c6ccc(Cl)s6)ccnc5[nH]4)c3n2)c1)C1CCC1` [Compound 1056, N-(5-(3-(7-(5-chlorothiophen-2-yl)-3H-imidazo[4,5-b]pyridin-2-yl)-1H-pyrazolo [4,3-b]pyridin-5-yl)pyridin-3-yl)cyclobutanecarboxamide], the EC50 [1] is reported as 354 nM, the EC50 (SW480 colon cancer cells) is reported as 109 nM and the EC50 (IL-6 (THP-1 cells)) is reported as > 10000 nM. It also gave an inhibition at 10 µM (IL-6 (THP-1 cells)) of 40.6%.

`NC1CN(c2cncc(-c3ccc4[nH]nc(-c5nc6c(-c7ccc(Cl)s7)ccnc6[nH]5)c4n3)n2)C1` [Compound 1068, 1-(6-(3-(7-(5-Chlorothiophen-2-yl)-3H-imidazo[4,5-b]pyridin-2-yl)-1H-pyrazolo[4,3-b]pyridin-5-yl)pyrazin-2-yl)azetidin-3-amine] was tested, and the EC50 [1] was 2300 nM, the EC50 (SW480 colon cancer cells) was > 10000 nM and the inhibition at 10 µM (SW480 colon cancer cells) was 17.8%. It also gave an EC50 (IL-6 (THP-1 cells)) of 1770 nM.
